Reference: patent US6239284A, “Aromatic tetracyclic compounds of the retinoid type method for preparing and use” (priority 1997, dated 2001)
Entries after “also recorded” stand apart in the source; their conditions may differ. Read-outs that look alike come from different tables or passages of the source.

Assays:
MCF-7 cells = test: Anti-proliferation effect, estrogen-induced growth of MCF-7 cells; type: cell-based, human
Procedure: (§1) So as to test the anti-proliferation effect of the retinoids, growth experiments under oestrogenic conditions were carried out on cells MCF-7 and T-47D. These are the human estrogen-dependent mammary cancer cells which express the receptor to RE estrogens. The effect of the molecules is evaluated after 7 days of culture in oestrogenic conditions (estradiol 10^-9 M) by dosing the cellular DNA. The cells are distributed in 24 well plates at a density of 2×10^4 cells per well. The tests with the different retinoids are carried out in triplicate and the culture medium is changed after 4 days of growth.
(§2) The effect of the retinoids on the growth of MCF-7 and T-47D cells is evaluated after 7 days of culture in the presence of 10^-9 M estradiol by dosing the cellular DNA.

T-47D cells = test: Anti-proliferation effect, estrogen-induced growth of T-47D cells; type: cell-based, human
Procedure: as §1, §2

AP-1 = test: Anti-AP-1 effect, MTLN cellular lineage (MCF-7 with (TRE)3-tk-Luc) activated by TPA; type: cell-based, human; details: for Anti-AP-1 effect, Inhibition (%): 10^-7 M TPA, range of several experiments; for inhibition at 1 µM: Homo sapiens, AP1, read-out: Inhibition of AP-1 route (MTLN)
Procedure: The anti-factor AP-1 transrepressor effect of retinoids is determined using the MTLN lineage, coming from MCF-7 cells transfected in a stable fashion by a vector p(TRE)3 -tk-Luc which places the expression of the gene of luciferase under the control of […]. TPA activates the AP-1 complex formed from proteins of the family of nuclear proto-oncogenes (c-Jun and c-Fos). […] The experiments ware made with the MTLN cells activated by 10^-7 M TPA.
The effect of the compounds on the MTLN cells activated by 10^-7 M TPA is expressed as a percentage. […] The inhibitive properties of the products are calculated after deduction of the base activity of the cells. The percentages reported correspond to a range of inhibitions determined from several experiments.

ERE = test: Anti-estrogenic effect, MELN cellular lineage (MCF-7 with ERE-βGlob-Luc) activated by estradiol; type: cell-based, human
Procedure: MCF-7 cells express RARα,γ and RXRα. The transfection of MCF-7 cells by an estrogen-dependent gene (ERE-βGlob-Luc) has permitted the establishment of the MELN cellular lineage, used to determine the anti-oestrogenic activity of the retinoids. These cells contain the gene of the luciferase under the transcriptional control of the promoter of the βGlobine and of the response element ERE isolated from the gene of chicken vitelogenine A2. The experiments are carried out with MELN cells activated by 10^-9 M estradiol. The level of base activity of the MELN cells is obtained with the anti-estrogen 1 μM 4-OH-tamoxifen (hydroxytamoxifen).
The effect of the products tested on the cells activated by 10^-9 M estradiol is expressed as a percentage, the level of base activity being deducted.

RAR [1] = test: RAR-ERcassette model, specificity profile (transient transfection of HeLa cells); type: cell-based
Source text: (§3) The HeLa cells are co-transfected by a plasmid which codes for a retinoic receptor in which the C domain of bonding to the DNA is substituted by that of the receptor to RE estrogens, and a plasmid which places the expression of the luciferase under the control of an ERE (Element of Response to Estrogens). The expressed chimerical receptors are designated as RARα-ERcassette, RARβ-ERcassette, RARγ-ERcassette and RXRα-ERcassette. The A, B, D, E and F regions of the natural receptor are preserved as well as the transcriptional co-operation between the activation domains AF-1 and AF-2. These transitory transfection experiments follow the method of co-precipitation to calcium phosphate. The HeLa cells are co-transfected by […] of plasmid coding for the chimerical receptor, […] of reporter plasmid and […] of expression vector CMV-β-galactosidase used as an internal control of transfection. 24 hours after the transfection, the cells are incubated for 16 hours with the different effectors.
(§4) In this type of chimerical receptor, the C domain of bonding to the DNA of RAR is substituted by that of the receptor to the RE estrogens. The protein obtained is close to the natural RAR receptor and preserves the transcriptional properties of the AF-1 and AF-2 domains. It modulates the transcription by means of an ERE. This RAR-ERcassette model allows one to observe a transcriptional response to a more physiological ligand.
(§5) The study of the selectivity of the compounds was carried out with the RAR-ERcassette chimerical receptors model.

RARβ [2] = test: Transactivation of chimerical receptor RARβ-ERcassette, transient transfection of HeLa cells; type: cell-based; details: for RAR-ERcassette RARβ transactivation (%): 100% = TTNPB 10^-8 M
Source text: as §3, §4, §5
(§6) On one and the same line in the Table, the cis (Z) compound represents the isomeric structure of the trans (E) compound.

RARE [3] = test: HRLN transactivation (stably transfected HeLa, RARE3-tk-Luc, endogenic receptors); type: cell-based
Source text: (§7) The cellular lineages HRLN and HRL+N allow one to study the activation of an RARE by endogenic receptors using ligands at physiological concentrations. These lineages derive from HeLa cells transfected in a stable fashion by a reporter gene which places the expression of the gene of the luciferase under the control of a nuclear response element RARE (RARE3 -tk-Luc). The HeLa cells express all the known receptors of the retinoic acid (RARα,β,γ and RXRα,β,γ) with a predominance of RARα and RXRα. The response element RARE used for the HRLN cells corresponds to the sequence of the natural gene of the RARβ receptor (GGTTCAnnnnnAGTTCA). The HRL+N cells comprise the sequence GAGTGAnnnnnCGGTGA.

RARE [4] = test: HRL+N transactivation (stably transfected HeLa, RARE reporter, endogenic receptors); type: cell-based; details: for activation at 1 µM: Table 12
Source text: as §7
The HRL+N lineage allows one to visualize a co-activation of the RAR and RXR receptors at the level of the RAR-RXR hetero-dimer.

RARα [5] = test: Transactivation of chimerical receptor RARα-ERcassette, transient transfection of HeLa cells; type: cell-based; details: for RAR-ERcassette RARα transactivation (%): 100% = TTNPB 10^-8 M
Source text: as §3, §4, §5, §6

RARγ [6] = test: Transactivation of chimerical receptor RARγ-ERcassette, transient transfection of HeLa cells; type: cell-based; details: 100% = TTNPB 10^-8 M
Source text: as §3, §4, §5, §6

RAR [7] = test: GAL-RAR model, specificity profile (transient transfection of HeLa cells)
Source text: (§8) Studies of the transactivational specificity of the retinoids have been carried out by transitory transfection of HeLa cells. Two types of chimerical receptors can then be expressed by the cells. […] The C region (domain of bonding to the DNA) and the A and B regions (AF-1 activation domain) are suppressed.
(§9) These chimerical receptors activated by an agonist specifically stimulate the transcription of the gene of the luciferase present in a co-transfected plasmid ((17M)5-βG-Luc) where 17M is the response element of Gal4.

RARα [8] = test: Transactivation of chimerical receptor GAL4-RARα, transient transfection of HeLa cells (luciferase)
Source text: as §8, §9

RARγ [9] = test: Transactivation of chimerical receptor GAL4-RARγ, transient transfection of HeLa cells (luciferase)
Source text: as §8, §9

RARβ [10] = test: Transactivation of chimerical receptor GAL4-RARβ, transient transfection of HeLa cells (luciferase)
Source text: as §8, §9

[11] = Homo sapiens, -6 log M (10^-6 M), 10^-9 M estradiol, read-out: Anti-oestrogenic effect, Inhibition (%)
[12] = Homo sapiens, read-out: Anti-oestrogenic effect, Inhibition (%)

In the case of `CC1(C)CCC(C)(C)c2cc(C(=O)Nc3ccc(C(=O)O)cc3)ccc21` [Am580, 4-[(5,6,7,8-tetrahydro-5,5,8,8-tetramethyl-2-naphthalenyl)carboxamido]benzoic acid], the inhibition at 1 µM (MCF-7 cells; Homo sapiens, MCF7, 168 h, at 1 μM, 7 days, estradiol 10^-9 M, read-out: MCF-7 percentage inhibition of growth) is reported as 67%, the inhibition at 1 µM (T-47D cells; Homo sapiens, T47D, 168 h, at 1 μM, 7 days, estradiol 10^-9 M, read-out: T-47D percentage inhibition of growth) is reported as 74% and the “Anti-AP-1 effect, Inhibition (%)” value (AP-1; -7 log M) is reported as 41-48%. For the same compound, the “Anti-AP-1 effect, Inhibition (%)” value (AP-1; -8 log M) was 40-46% and the inhibition at 0.01 µM (ERE; Homo sapiens, -8 log M, 10^-9 M estradiol, read-out: Anti-oestrogenic effect, Inhibition (%)) was 36 to 51%.
`Cc1cc2c(cc1/C=C1/CCc3cc(-c4nnn[nH]4)ccc31)C(C)(C)CCC2(C)C` [CB02981, (Z) 5-[1-[2-(5,6,7,8-tetrahydro-3,5,5,8,8-pentamethyl)naphthalenylmethylene]-2,3-dihydro-1H-indenyl]-1H-tetrazole] was tested, and the “RAR-ERcassette profile in words” value (RAR [1]) was “inactive”, the “Effect on growth of MCF-7 cells in words” value (MCF-7 cells; estrogenic conditions) was “no effect whatsoever” and the “RAR-ERcassette RARβ transactivation (%)” value (RARβ [2]; -6 log M (1 μM)) was 7%. For the same compound, the “Effect on growth of T-47D cells in words” value (T-47D cells; estrogenic conditions) was “no effect whatsoever”, the “Anti-AP-1 effect (MTLN) in words” value (AP-1) was “in association with a RXR agonist, an additive effect of the inhibiting effects of the two molecules is observed; also recorded: dissociating compound and causes inhibition of the AP-1 ring” and the inhibition at 1 µM (AP-1) was about 20%. For the same compound, the “HRLN transactivation in words” value (RARE [3]) was “inactive”, the activation at 1 µM (RARE [3]; Homo sapiens, HeLa) was 0% and the “HRL+N transactivation in words” value (RARE [4]) was “does not cause transactivation mediated by RAR and RXR”. For the same compound, the activation at 1 µM (RARE [4]; Homo sapiens, HeLa) was 0%, the “RAR-ERcassette RARα transactivation (%)” value (RARα [5]; -6 log M (1 μM)) was 4% and the inhibition at 1 µM (ERE; [11]) was 0%. For the same compound, the “RAR-ERcassette RARγ transactivation (%)” value (RARγ [6]; -6 log M (1 μM)) was 0%.
For `Cc1cc2c(cc1/C=C1/CCc3cc(C(=O)O)ccc31)C(C)(C)CCC2(C)C` [CB75403, (Z) 1-[2-(5,6,7,8-tetrahydro-3,5,5,8,8-pentamethyl)naphthalenylmethylene]-2,3-dihydro-1H-indene-5-carboxylic acid], the “RAR-ERcassette profile in words” value (RAR [1]) was “RARβ,γ specificity; also recorded: RARβ,γ selectivity”, the “RARβ transactivation (RAR-ERcassette) in words” value (RARβ [2]) was “same level of transactivation through the intermediary of RARβ at 0.1 μM and at 1 μM and also at 3 μM” and the “RAR-ERcassette RARβ transactivation (%)” value (RARβ [2]; -6 log M (1 μM)) was 65%. The “RAR-ERcassette RARβ transactivation (%)” value (RARβ [2]; -7 log M) was 68%, the inhibition at 1 µM (AP-1) was about 30% and the activation at 1 µM (RARE [4]; Homo sapiens, HeLa) was 18%. The “RARα transactivation (RAR-ERcassette) in words” value (RARα [5]) was “inactive on RARα”, the “RAR-ERcassette RARα transactivation (%)” value (RARα [5]; -6 log M (1 μM)) was 12% and the “RAR-ERcassette RARα transactivation (%)” value (RARα [5]; -7 log M) was 3%. The inhibition at 1 µM (ERE; [11]) was 0%, the “RAR-ERcassette RARγ transactivation (%)” value (RARγ [6]; -6 log M (1 μM)) was 68% and the “RAR-ERcassette RARγ transactivation (%)” value (RARγ [6]; -7 log M) was 40%.
With `Cc1cc2c(cc1C(=O)c1ccc(C(=O)O)cc1)C(C)(C)CCC2(C)C` [LGD-CB14499] the “RARβ transactivation (RAR-ERcassette) in words” value (RARβ [2]) was “transcriptional power appears higher notably through the RARβ-ERcassette”, the “GAL-RAR agonist profile in words” value (RAR [7]) was “do not allow one to observe a good transactivation mediated by RAR” and the “GAL4-RARα activity, % of activity measured for 10^-8 M TTNPB” value (“GAL4-RARα activity, % of activity” for short) (RARα [8]; Concentration -6 (log M)) was 17%. For the same compound, the “GAL4-RARα activity, % of activity” value (RARα [8]; Concentration -7 (log M)) was 4%, the “GAL4-RARα activity, % of activity” value (RARα [8]; Concentration -8 (log M)) was 1% and the “Anti-AP-1 effect (MTLN) in words” value (AP-1) was “causes an inhibition of the AP-1 route”. For the same compound, the “Anti-AP-1 effect, Inhibition (%)” value (AP-1; -7 log M) was 17-30%, the Emax (RARE [3]; Homo sapiens, HeLa, read-out: HRLN transactivation E max %) was 30% and the Emax at 1 µM (RARE [4]; Homo sapiens, HeLa) was 94%. For the same compound, the “GAL4-RARγ activity, % of activity measured for 10^-8 M TTNPB” value (“GAL4-RARγ activity, % of activity” below) (RARγ [9]; Concentration -6 (log M)) was 13%, the “GAL4-RARγ activity, % of activity” value (RARγ [9]; Concentration -7 (log M)) was 0% and the “GAL4-RARγ activity, % of activity” value (RARγ [9]; Concentration -8 (log M)) was 0%. For the same compound, the “GAL4-RARβ activity, % of activity measured for 10^-8 M TTNPB” value (shortened to “GAL4-RARβ activity, % of activity”) (RARβ [10]; Concentration -6 (log M)) was 9%, the “GAL4-RARβ activity, % of activity” value (RARβ [10]; Concentration -7 (log M)) was 1% and the “GAL4-RARβ activity, % of activity” value (RARβ [10]; Concentration -8 (log M)) was 0%. For the same compound, the “Anti-estrogenic effect (MELN) in words” value (ERE) was “inactive”, the inhibition at 0.1 µM (ERE; [12]) was 0% and the inhibition at 1 µM (ERE; [12]) was 0%.
For `C/C(=C\c1ccc(C(=O)O)cc1)c1ccc2c(c1)C(C)(C)CCC2(C)C` [TTNPB], the IC50 (MCF-7 cells; Homo sapiens, MCF7, 168 h, read-out: MCF-7 IC50 (growth inhibition by 50%)) was 350 ± 70 pM, the IC50 (T-47D cells; Homo sapiens, T47D, 168 h, read-out: T-47D IC50 (growth inhibition by 50%)) was 3300 ± 1100 pM and the “Anti-AP-1 effect, Inhibition (%)” value (AP-1; -7 log M) was 29-54%. The “Anti-AP-1 effect, Inhibition (%)” value (AP-1; -8 log M) was 26-53%, the EC50 (RARE [3]; Homo sapiens, HeLa, read-out: HRLN transactivation EC50) was 550 ± 720 pM and the inhibition at 0.01 µM (ERE; [12]) was 30 to 41%. For the same compound, the “Inhibition in MELN” value (ERE; RAR selective molecules, 10^-9 M estradiol) was about 40%.
